Test results from US20110092423A1, “INHIBITORS OF Akt ACTIVITY” (GlaxoSmithKline, LLC, priority 2008, published 2011).

Molecular target: T1, full length AKT1 (Homo sapiens, UniProt P31749)
T1 construct: Full-length human AKT1 gene was amplified by PCR; His tag (from vector pFastbacHTb; purified on Nickel Sepharose) (N); made in house; host or cells: baculovirus; Sf9 / T. ni insect cells
Assay: Full-length AKT enzyme assay (substrate phosphorylation, SPA)
Assay type: biochemical
Conditions: in at least one experimental run; pIC50 = -log(IC50), IC50 in molar units; 4 uM ATP, 10 nM enzyme; read-out: pIC50 value against full length AKT1 (converted)
Description: Cloning of Full-Length Human (FL) AKT1:
Full-length human AKT1 gene was amplified by PCR from a plasmid containing myristylated-AKT1-ER (gift from Robert T. Abraham, Duke University under MTA, described in Klippel et al. in Molecular and Cellular Biology 1998 Volume 18 p. 5699) using the 5′ primer: SEQ. ID NO: 2 5′ […] 3′ and the 3′ primer: SEQ. ID NO: 3 […] 3′. The 5′ primer included a BamHI site and the 3′ primer included an XhoI site for cloning purposes. The resultant PCR product was subcloned in pcDNA3 as a BamHI/XhoI fragment. […]
Compounds of the present invention were tested for AKT 1, 2, and 3 protein serine kinase inhibitory activity in substrate phosphorylation assays. […] Substrate phosphorylation was detected by the following procedure.
Assays were performed in 384 well U-bottom white plates. […] The reaction was stopped by the addition of 50 ul SPA bead mix (Dulbecco's PBS without Mg^2+ and Ca^2+, 0.1% Triton X-100, 5 mM EDTA, 50 uM ATP, 2.5 mg/ml Streptavidin-coated SPA beads.) The plate was sealed, the beads were allowed to settle overnight, and then the plate was counted in a Packard Topcount Microplate Scintillation Counter (Packard Instrument Co., Meriden, Conn.). […]

T1 sequence (P31749 whole entry): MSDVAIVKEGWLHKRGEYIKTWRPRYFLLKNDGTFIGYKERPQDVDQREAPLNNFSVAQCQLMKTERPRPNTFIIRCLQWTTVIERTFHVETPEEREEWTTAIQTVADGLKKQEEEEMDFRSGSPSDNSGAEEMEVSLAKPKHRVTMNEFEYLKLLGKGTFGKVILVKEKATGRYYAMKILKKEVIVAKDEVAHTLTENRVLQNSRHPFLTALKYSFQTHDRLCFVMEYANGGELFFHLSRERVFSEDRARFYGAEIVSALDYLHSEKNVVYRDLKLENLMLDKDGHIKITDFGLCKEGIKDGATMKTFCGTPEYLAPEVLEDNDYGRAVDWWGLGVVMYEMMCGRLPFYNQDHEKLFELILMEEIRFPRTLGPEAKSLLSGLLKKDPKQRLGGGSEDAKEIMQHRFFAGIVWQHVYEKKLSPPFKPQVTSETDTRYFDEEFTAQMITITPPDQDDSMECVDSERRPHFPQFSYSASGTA

Work on `Cn1ncc(Cl)c1-c1ncc(C(=O)N[C@H](CN)Cc2cccc(F)c2)s1` [Example 2, N-{(1S)-2-amino-1-[(3-fluorophenyl)methyl]ethyl}-2-(4-chloro-1-methyl-1H-pyrazol-5-yl)-1,3-thiazole-5-carboxamide] yielded an IC50 of 10 nM.
